Laboratory results: patent publication US7449290B2, “Method for selecting genetically transformed cells” (Expressive Research B.V., priority 2001, dated 2008)

Tests used:
[1] = test system: non-transformed Arabidopsis thaliana Col.O seedlings; test: Selection of transgenic Arabidopsis seedlings on trehalose medium; type: in vivo; details: 100 mM trehalose, 1/2 MS agar, after 12 days at 22° C.
Method: Arabidopsis thaliana Col.O plants were transformed with Aarobacterium with the binary plasmid as described in Example 2C, via the “floral dip” protocol (Clough and Bent, supra). The obtained dry seeds were sterilized and sown on 0.8% w/v solid agar medium having therein half-strength MS-salts (½ MS-salts), vitamins and MES buffer pH 5.7, supplemented with trehalose in a final concentration of 100 mM. The dishes were incubated for 3 days at 4° C. (stratification), whereafter a drop of ethanol was applied to the inside of the cover and dishes were transferred to 22° C. […] The transformed resistant seedlings are green, have long roots and primary leaves. […] In moist conditions the cotyledons become pale.

[2] = test system: Arabidopsis thaliana Col. O and La-er seedlings; test: Sensitivity to trehalose of Arabidopsis thaliana seedlings (Col.O and La-er) on agar medium; type: in vivo; details: 100 mM trehalose in 0.8% agar, half-strength MS medium, pH 5.7; compared with 100 mM mannitol control
Method: Seeds were sterilized using the gas-phase protocol of Clough and Bent (1998) (Clough S. J., Bent A. F., Plant J. 16(6): 735-743, 199.8) in Eppendorf tubes. The sterilized sees were then resuspended in sterile water and arranged on 0.8% w/v agar medium containing half-strength Murashigue and Skoog medium (MS medium; Murashigue T, Skoog F, Physiol. Plant. 15: 473-497, 1977), vitamins and MES buffer (pH 5.7), supplemented with mannitol or trehalose in a final concentration of 100 mM. […] The upper row of plants are the Arabidopsis thaliana Landsberg erecta (La-er), and the lower row of plants are the Arabidopsis thaliana Colombia (Col.O).

Compound: OC[C@H]1O[C@H](O[C@H]2O[C@H](CO)[C@@H](O)[C@H](O)[C@H]2O)[C@H](O)[C@@H](O)[C@@H]1O [trehalose, Trehalose]
- phenotype of non-transformed, sensitive seedlings [1]: accumulate anthocyanins, develop no primary leaves
- root length of non-transformed, sensitive seedlings [1]: ≤ 3 mm
- development of plants from seeds (root system) [2]: lesser development
